Common to all, as to conditions: binder
For experiment [1], the target named is BRD4 (Homo sapiens, UniProt O60885).
Experiment [2] concerns the target BIKE (Homo sapiens, UniProt Q9NSY1).
Experiment [3] addresses T1, Haspin (Homo sapiens, UniProt Q8TF76).
T1 sequence (Q8TF76 1-798): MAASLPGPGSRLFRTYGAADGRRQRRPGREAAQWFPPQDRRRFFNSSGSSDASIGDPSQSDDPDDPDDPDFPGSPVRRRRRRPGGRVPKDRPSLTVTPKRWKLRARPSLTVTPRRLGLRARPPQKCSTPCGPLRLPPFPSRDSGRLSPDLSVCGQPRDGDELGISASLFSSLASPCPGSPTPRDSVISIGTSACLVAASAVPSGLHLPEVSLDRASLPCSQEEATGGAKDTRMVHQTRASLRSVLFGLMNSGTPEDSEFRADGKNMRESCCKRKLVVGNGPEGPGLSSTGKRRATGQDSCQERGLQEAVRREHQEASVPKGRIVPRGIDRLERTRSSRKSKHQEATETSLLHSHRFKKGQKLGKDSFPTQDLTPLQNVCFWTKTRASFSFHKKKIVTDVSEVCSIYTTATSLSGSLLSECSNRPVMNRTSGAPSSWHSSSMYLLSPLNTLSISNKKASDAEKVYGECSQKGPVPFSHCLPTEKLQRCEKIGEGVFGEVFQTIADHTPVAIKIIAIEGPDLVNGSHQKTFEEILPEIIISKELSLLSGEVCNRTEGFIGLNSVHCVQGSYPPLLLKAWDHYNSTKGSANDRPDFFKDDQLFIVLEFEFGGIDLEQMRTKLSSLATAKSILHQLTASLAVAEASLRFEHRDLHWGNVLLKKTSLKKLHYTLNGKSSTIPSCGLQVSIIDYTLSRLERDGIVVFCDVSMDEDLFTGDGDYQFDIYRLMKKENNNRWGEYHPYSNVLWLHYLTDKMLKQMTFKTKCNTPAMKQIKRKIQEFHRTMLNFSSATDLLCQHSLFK

Experiment [4] has as its target T2, VRK1 (Homo sapiens, UniProt Q99986).
T2 sequence (Q99986 1-396): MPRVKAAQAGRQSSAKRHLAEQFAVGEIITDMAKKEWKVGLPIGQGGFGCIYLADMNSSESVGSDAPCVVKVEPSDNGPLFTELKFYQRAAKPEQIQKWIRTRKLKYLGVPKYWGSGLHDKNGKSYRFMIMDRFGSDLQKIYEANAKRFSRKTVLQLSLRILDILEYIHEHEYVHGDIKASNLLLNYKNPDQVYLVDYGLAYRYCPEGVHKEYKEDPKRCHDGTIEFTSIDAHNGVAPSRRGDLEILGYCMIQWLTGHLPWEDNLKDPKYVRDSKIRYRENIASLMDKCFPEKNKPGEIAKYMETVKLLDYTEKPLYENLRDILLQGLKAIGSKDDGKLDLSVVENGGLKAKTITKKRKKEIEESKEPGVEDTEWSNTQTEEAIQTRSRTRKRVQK

Experiment [5] deals with FGFR2 (Homo sapiens, UniProt P21802).
Chain of FGFR2 (P21802 whole entry): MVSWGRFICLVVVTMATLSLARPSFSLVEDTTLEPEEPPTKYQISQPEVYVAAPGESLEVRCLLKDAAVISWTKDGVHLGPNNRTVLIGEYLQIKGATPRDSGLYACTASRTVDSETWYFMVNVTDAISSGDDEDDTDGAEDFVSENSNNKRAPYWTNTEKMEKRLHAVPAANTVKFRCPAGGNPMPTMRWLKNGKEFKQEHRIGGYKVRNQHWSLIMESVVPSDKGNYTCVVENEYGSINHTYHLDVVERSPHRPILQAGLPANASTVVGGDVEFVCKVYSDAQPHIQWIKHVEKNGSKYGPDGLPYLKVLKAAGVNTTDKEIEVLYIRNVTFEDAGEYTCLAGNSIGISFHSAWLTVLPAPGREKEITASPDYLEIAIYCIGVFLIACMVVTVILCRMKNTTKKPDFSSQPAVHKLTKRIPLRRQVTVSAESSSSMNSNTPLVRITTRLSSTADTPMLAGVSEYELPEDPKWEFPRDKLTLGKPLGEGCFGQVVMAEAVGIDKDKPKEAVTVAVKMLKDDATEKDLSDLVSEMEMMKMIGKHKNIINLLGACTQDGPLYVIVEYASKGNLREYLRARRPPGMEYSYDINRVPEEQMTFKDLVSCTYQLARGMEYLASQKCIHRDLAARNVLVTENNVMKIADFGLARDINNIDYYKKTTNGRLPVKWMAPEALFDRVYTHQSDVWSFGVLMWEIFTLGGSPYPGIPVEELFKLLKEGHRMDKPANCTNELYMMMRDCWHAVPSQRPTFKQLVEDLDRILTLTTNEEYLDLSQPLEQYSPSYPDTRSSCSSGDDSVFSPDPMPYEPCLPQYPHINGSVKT
The target of experiment [6] is MELK (Homo sapiens, UniProt Q14680).
Chain of MELK (Q14680 whole entry): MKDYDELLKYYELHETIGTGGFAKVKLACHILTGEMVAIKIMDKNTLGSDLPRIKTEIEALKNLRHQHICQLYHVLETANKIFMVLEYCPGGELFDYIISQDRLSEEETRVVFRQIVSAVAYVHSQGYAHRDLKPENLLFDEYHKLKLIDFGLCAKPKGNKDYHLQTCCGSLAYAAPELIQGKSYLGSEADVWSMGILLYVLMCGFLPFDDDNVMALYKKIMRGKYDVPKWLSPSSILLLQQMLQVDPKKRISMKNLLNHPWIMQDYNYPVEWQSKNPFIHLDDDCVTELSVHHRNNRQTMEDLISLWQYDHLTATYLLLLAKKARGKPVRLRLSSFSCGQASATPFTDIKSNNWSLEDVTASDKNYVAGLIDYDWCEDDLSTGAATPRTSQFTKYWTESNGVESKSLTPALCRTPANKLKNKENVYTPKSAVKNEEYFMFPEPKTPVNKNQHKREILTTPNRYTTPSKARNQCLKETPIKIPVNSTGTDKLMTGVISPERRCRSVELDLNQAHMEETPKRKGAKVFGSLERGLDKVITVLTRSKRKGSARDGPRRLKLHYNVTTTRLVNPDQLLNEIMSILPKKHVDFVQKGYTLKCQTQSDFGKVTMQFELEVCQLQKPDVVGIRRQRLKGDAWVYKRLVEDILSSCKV
For experiment [7], the target named is T3, PLK4 (Homo sapiens, UniProt O00444).
T3 sequence (O00444 1-970): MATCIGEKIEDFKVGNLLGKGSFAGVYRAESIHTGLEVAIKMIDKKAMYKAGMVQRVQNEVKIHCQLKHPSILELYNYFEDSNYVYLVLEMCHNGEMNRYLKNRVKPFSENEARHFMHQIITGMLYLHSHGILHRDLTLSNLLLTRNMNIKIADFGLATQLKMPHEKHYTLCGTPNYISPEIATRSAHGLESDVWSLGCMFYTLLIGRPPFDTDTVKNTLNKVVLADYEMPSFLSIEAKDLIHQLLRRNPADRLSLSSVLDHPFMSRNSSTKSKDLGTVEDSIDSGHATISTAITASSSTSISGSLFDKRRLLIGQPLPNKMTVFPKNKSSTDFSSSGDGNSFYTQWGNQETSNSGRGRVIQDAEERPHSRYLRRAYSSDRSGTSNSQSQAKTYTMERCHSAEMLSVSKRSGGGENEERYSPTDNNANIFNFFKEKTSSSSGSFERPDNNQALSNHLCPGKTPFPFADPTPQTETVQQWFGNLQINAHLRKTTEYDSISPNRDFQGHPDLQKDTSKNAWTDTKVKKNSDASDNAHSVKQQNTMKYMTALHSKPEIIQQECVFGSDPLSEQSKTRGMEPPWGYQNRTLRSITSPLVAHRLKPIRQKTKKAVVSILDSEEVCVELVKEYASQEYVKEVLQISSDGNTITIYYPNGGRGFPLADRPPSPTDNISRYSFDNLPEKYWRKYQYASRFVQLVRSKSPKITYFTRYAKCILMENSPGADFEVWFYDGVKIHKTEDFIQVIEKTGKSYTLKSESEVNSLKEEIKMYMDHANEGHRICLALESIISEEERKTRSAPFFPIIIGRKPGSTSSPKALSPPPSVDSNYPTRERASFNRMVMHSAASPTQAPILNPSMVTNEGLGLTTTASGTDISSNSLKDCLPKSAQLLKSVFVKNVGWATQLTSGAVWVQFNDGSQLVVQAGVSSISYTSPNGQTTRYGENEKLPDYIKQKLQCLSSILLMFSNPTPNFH

Chain of BIKE (Q9NSY1 whole entry): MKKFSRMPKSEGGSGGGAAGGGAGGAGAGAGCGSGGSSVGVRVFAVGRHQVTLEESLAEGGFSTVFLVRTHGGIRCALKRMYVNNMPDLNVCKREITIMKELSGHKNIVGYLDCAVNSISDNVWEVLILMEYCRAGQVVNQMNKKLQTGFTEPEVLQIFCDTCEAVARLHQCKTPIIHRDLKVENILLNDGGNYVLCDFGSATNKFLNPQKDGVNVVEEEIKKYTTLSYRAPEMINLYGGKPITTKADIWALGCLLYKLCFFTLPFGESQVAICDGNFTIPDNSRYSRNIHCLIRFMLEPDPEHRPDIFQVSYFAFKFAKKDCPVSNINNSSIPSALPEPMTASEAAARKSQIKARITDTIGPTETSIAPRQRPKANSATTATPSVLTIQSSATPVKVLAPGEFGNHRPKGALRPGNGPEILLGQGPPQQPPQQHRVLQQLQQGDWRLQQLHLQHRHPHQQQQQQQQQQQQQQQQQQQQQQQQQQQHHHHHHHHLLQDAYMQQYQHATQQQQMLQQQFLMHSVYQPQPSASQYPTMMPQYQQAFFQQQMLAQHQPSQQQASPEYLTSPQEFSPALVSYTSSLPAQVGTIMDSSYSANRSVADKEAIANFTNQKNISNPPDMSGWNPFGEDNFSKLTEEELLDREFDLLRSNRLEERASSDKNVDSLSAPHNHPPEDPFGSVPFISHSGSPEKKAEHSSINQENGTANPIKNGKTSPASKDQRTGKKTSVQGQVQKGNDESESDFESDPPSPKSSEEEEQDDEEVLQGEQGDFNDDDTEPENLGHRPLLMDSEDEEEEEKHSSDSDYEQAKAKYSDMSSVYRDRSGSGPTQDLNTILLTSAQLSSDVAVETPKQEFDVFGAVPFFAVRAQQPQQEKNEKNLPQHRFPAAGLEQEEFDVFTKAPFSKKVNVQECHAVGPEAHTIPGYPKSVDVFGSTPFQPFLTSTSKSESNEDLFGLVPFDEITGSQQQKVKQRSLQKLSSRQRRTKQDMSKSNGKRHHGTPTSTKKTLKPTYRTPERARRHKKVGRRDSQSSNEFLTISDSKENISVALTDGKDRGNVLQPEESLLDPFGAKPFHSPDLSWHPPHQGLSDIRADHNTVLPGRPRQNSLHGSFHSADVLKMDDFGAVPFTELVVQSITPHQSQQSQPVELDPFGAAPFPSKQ

As for `Cc1cccc(-c2ccc(-c3cc4cnc(Nc5ccc(F)c(CO)c5)nc4n(CCCCN)c3=O)c(Cl)c2)n1` [compound 33, 8-(4-Aminobutyl)-6-(2-chloro-4-(6-methylpyridin-2-yl)phenyl)-2-((4-fluoro-3-(hydroxymethyl)phenyl)amino)pyrido[2,3-d]pyrimidin-7(8H)-one], the “dTm 33” value was -3.7 °C in experiment [1]; 7.2 °C in experiment [2]; -0.2 °C in experiment [3]; 0.4 °C in experiment [4]; 3.3 °C in experiment [5]; 6.4 °C in experiment [6]. Further, the “dTm 33” value in experiment [7] was determined as 13.1 °C.

Consider `COc1ccc(O)c(Nc2ncc3cc(-c4ccc(-c5cccc(C)n5)cc4Cl)c(=O)n(CCCCN)c3n2)c1` [compound 34, 8-(4-Aminobutyl)-6-(2-chloro-4-(6-methylpyridin-2-yl)phenyl)-2-((2-hydroxy-5-methoxy-phenyl)amino)pyrido[2,3-d]pyrimidin-7(8H)-one], for which the “dTm 34” value was -1.8 °C in experiment [1]; 0.8 °C in experiment [2]; -0.2 °C in experiment [3]; 0.0 °C in experiment [4]; 2.0 °C in experiment [5]; 3.3 °C in experiment [6]. For the same compound, the “dTm 34” value in experiment [7] came to 8.8 °C.

As to `COc1cc(N2CCOCC2)ccc1Nc1ncc2cc(-c3ccc(-c4cccc(C)n4)cc3Cl)c(=O)n(CCCCN)c2n1` [compound 35, 8-(4-Aminobutyl)-6-(2-chloro-4-(6-methylpyridin-2-yl)phenyl)-2-((2-methoxy-4-morpholino-phenyl)amino)pyrido[2,3-d]pyrimidin-7(8H)-one], the “dTm 35” value in experiment [1] was -3.6 °C; in experiment [2], 1.3 °C; in experiment [3], -0.1 °C; in experiment [4] it was -0.2 °C; in experiment [5], 2.4 °C; in experiment [6], 7.5 °C. In addition, the “dTm 35” value in experiment [7] was 13.6 °C.

With `COc1cc(N2CCN(C)CC2)ccc1Nc1ncc2cc(-c3ccc(-c4cccc(C)n4)cc3Cl)c(=O)n(CCCCN)c2n1` [compound 36, 8-(4-Aminobutyl)-6-(2-chloro-4-(6-methylpyridin-2-yl)phenyl)-2-((2-methoxy-4-(4-methylpiperazin-1-yl)phenyl)amino)pyrido[2,3-d]pyrimidin-7(8H)-one], the “dTm 36” value is -3.5 °C in experiment [1]; 1.0 °C in experiment [2]; -0.7 °C in experiment [3]; 0.1 °C in experiment [4]; 2.9 °C in experiment [5]; 7.4 °C in experiment [6]. Further, the “dTm 36” value in experiment [7] is 11.8 °C.

These data come from article doi:10.1101/2023.11.24.568596v1 (biorxiv, 2023).
